Starred links: 1 amine or outer side, 2 acyl side, 3 side chain; linkers in the order of their positions; H or OH if unused. Positions of bridges follow the written chain, without caps; N, C: chain ends. Non-standard residues stand in square brackets, D forms with d. Residues, ends and D or L forms follow the SMILES beside them. *: point of attachment. NMeF = CN[C@@H](Cc1ccccc1)C(=O)O; NMeβAla = CN(CCC(=O)[*:2])[*:1]; NMeL = CN[C@@H](CC(C)C)C(=O)O; NMeV = CN[C@H](C(=O)O)C(C)C; NMeA = CN[C@@H](C)C(=O)O; Piperidide = C1CCN(*)CC1; dNMeA = CN[C@H](C)C(=O)O; Sar = CNCC(=O)O
What was measured:
[1] = Metabolic stability in human hepatic microsome; format: in vitro ADME; conditions: microsomes, pH 7.4; human hepatic microsome, NADPH(+); read-out: CL NADPH(+)
[2] = PAMPA (parallel artificial membrane permeability assay); format: in vitro ADME; conditions: PAMPA; membrane permeation rate (Pe); 50 mM MOPSO buffer pH 6.5 with 5.0% glycocholic acid, 37° C., 18 hours; read-out: iPAMPA Pe
Procedure, shortened: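 Artificial membrane was 10% (w/v) egg lecithin plus 0.5% (w/v) cholesterol in dodecane on a PVDF filter. A 10 mM DMSO stock was added at 0.5% (v/v) to donor buffer (50 mM MOPSO, pH 6.5, 5.0% glycocholic acid). After 18 h at 37 °C, LC/MS or LC/UV gave donor and acceptor levels for Pe.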

Structure (SMILES) | microsomal CLint at 1 uM [1] | Papp at 18 hours, 50 µM [2]
CC(C)C[C@H]1C(=O)N[C@@H](C(C)C)C(=O)N[C@H](C(=O)N(C)[C@@H](Cc2ccccc2)C(=O)N[C@@H](C)C(=O)N2CCCCC2)CC(=O)N[C@@H](C)C(=O)N(C)[C@@H](Cc2ccccc2)C(=O)N(C)[C@@H](C)C(=O)N(C)[C@@H](CC(C)C)C(=O)N[C@@H]([C@@H](C)O)C(=O)N(C)CC(=O)N1C [DP-196] (A[NMeF][NMeA][NMeL]T[Sar][NMeL]VD[NMeF]A-Piperidide; lactam N-9) | 65 µL/min/mg | 29 ×10⁻⁶ cm/s
CC(C)C[C@H]1C(=O)N[C@H](C(=O)N(C)[C@@H](Cc2ccccc2)C(=O)N[C@@H](C)C(=O)N2CCCCC2)CC(=O)N[C@H](C)C(=O)N(C)[C@@H](Cc2ccccc2)C(=O)N(C)[C@@H](CC(C)C)C(=O)N[C@@H]([C@@H](C)O)C(=O)N(C)[C@@H](C)C(=O)N(C)[C@@H](CC(C)C)C(=O)N[C@@H](C(C)C)C(=O)N1C [DP-197] ([dA][NMeF][NMeL]T[NMeA][NMeL]V[NMeL]D[NMeF]A-Piperidide; lactam N-9) | 48 µL/min/mg | 27 ×10⁻⁶ cm/s
CC(C)C[C@H]1C(=O)N[C@@H](C(C)C)C(=O)N[C@H](C(=O)N(C)[C@@H](Cc2ccccc2)C(=O)N[C@@H](C)C(=O)N2CCCCC2)CC(=O)N[C@H](C(C)C)C(=O)N(C)[C@@H](Cc2ccccc2)C(=O)N(C)[C@@H](C)C(=O)N(C)[C@@H](CC(C)C)C(=O)N[C@@H]([C@@H](C)O)C(=O)N(C)CC(=O)N1C [DP-198] ([dV][NMeF][NMeA][NMeL]T[Sar][NMeL]VD[NMeF]A-Piperidide; lactam N-9) | 34 µL/min/mg | 36 ×10⁻⁶ cm/s
CC(C)C[C@H]1C(=O)N(C)[C@@H](CC(C)C)C(=O)N[C@H](C(=O)N(C)[C@@H](Cc2ccccc2)C(=O)N[C@@H](C)C(=O)N2CCCCC2)CC(=O)N(C)[C@@H](C)C(=O)N(C)[C@@H](Cc2ccccc2)C(=O)N(C)[C@@H](CC(C)C)C(=O)N[C@@H]([C@@H](C)O)C(=O)N(C)[C@@H](C)C(=O)N[C@@H](C(C)C)C(=O)N1C [DP-199] ([NMeA][NMeF][NMeL]T[NMeA]V[NMeL][NMeL]D[NMeF]A-Piperidide; lactam N-9) | 170 µL/min/mg | 59 ×10⁻⁶ cm/s
CC(C)C[C@H]1C(=O)N[C@@H](C(C)C)C(=O)N(C)[C@@H](Cc2ccccc2)C(=O)N(C)[C@@H](C)C(=O)N[C@@H](Cc2ccccc2)C(=O)N[C@H](C(=O)N(C)[C@@H](Cc2ccccc2)C(=O)N[C@@H](C)C(=O)N2CCCCC2)CC(=O)N(C)CCC(=O)N[C@@H]([C@@H](C)O)C(=O)N(C)CC(=O)N1C [DP-200] ([NMeβAla]T[Sar][NMeL]V[NMeF][NMeA]FD[NMeF]A-Piperidide; lactam N-9) | 57 µL/min/mg | 22 ×10⁻⁶ cm/s
CC(C)C[C@H]1C(=O)N(C)[C@@H](Cc2ccccc2)C(=O)N[C@@H]([C@@H](C)O)C(=O)N(C)[C@@H](C)C(=O)N[C@@H](C(C)C)C(=O)N(C)[C@@H](CC(C)C)C(=O)N(C)[C@@H](CC(C)C)C(=O)N[C@H](C(=O)N(C)[C@@H](Cc2ccccc2)C(=O)N[C@@H](C)C(=O)N2CCCCC2)CC(=O)N(C)CCC(=O)N1C [DP-201] ([NMeβAla][NMeL][NMeF]T[NMeA]V[NMeL][NMeL]D[NMeF]A-Piperidide; lactam N-9) | 209 µL/min/mg | 27 ×10⁻⁶ cm/s
CC(C)C[C@H]1C(=O)N(C)[C@@H](Cc2ccccc2)C(=O)N[C@@H]([C@@H](C)O)C(=O)N(C)[C@@H](C)C(=O)N(C)[C@@H](CC(C)C)C(=O)N[C@@H](C(C)C)C(=O)N(C)[C@@H](CC(C)C)C(=O)N[C@H](C(=O)N(C)[C@@H](Cc2ccccc2)C(=O)N[C@@H](C)C(=O)N2CCCCC2)CC(=O)N(C)CC(=O)N1C [DP-202] ([Sar][NMeL][NMeF]T[NMeA][NMeL]V[NMeL]D[NMeF]A-Piperidide; lactam N-9) | 134 µL/min/mg | 55 ×10⁻⁶ cm/s
CC(C)C[C@H]1C(=O)N[C@H](C(=O)N(C)[C@@H](Cc2ccccc2)C(=O)N(C)[C@@H](Cc2ccccc2)C(=O)N[C@@H](C)C(=O)N2CCCCC2)CC(=O)N[C@@H](C)C(=O)N(C)[C@@H](Cc2ccccc2)C(=O)N(C)[C@@H](C)C(=O)N(C)[C@@H](CC(C)C)C(=O)N[C@@H]([C@@H](C)O)C(=O)N(C)[C@@H](C)C(=O)N(C)[C@@H](CC(C)C)C(=O)N[C@@H](C(C)C)C(=O)N1C [DP-203] (A[NMeF][NMeA][NMeL]T[NMeA][NMeL]V[NMeL]D[NMeF][NMeF]A-Piperidide; lactam N-10) | 18 µL/min/mg | 11 ×10⁻⁶ cm/s
CC(C)C[C@H]1C(=O)N[C@H](C(=O)N(C)[C@@H](Cc2ccccc2)C(=O)N(C)[C@@H](Cc2ccccc2)C(=O)N[C@@H](C)C(=O)N2CCCCC2)CC(=O)N[C@H](C)C(=O)N(C)[C@@H](C)C(=O)N(C)[C@@H](Cc2ccccc2)C(=O)N(C)[C@@H](CC(C)C)C(=O)N[C@@H]([C@@H](C)O)C(=O)N(C)[C@@H](C)C(=O)N(C)[C@@H](CC(C)C)C(=O)N[C@@H](C(C)C)C(=O)N1C [DP-204] ([dA][NMeA][NMeF][NMeL]T[NMeA][NMeL]V[NMeL]D[NMeF][NMeF]A-Piperidide; lactam N-10) | 48 µL/min/mg | 22 ×10⁻⁶ cm/s
CC(C)C[C@H]1C(=O)N[C@@H]([C@@H](C)O)C(=O)N(C)[C@@H](Cc2ccccc2)C(=O)N(C)[C@@H](CC(C)C)C(=O)NCC(=O)N(C)[C@@H](C(C)C)C(=O)N[C@@H](Cc2ccccc2)C(=O)N[C@H](C(=O)N(C)[C@@H](Cc2ccccc2)C(=O)N(C)[C@@H](Cc2ccccc2)C(=O)N[C@@H](C)C(=O)N2CCCCC2)CC(=O)N[C@H](C(C)C)C(=O)N[C@@H](C(C)C)C(=O)N1C [DP-205] ([dV]V[NMeL]T[NMeF][NMeL]G[NMeV]FD[NMeF][NMeF]A-Piperidide; lactam N-10) | 29 µL/min/mg | 0.12 ×10⁻⁶ cm/s
CC(C)C[C@H]1C(=O)N(C)[C@@H](CC(C)C)C(=O)N[C@@H]([C@@H](C)O)C(=O)N(C)[C@@H](Cc2ccccc2)C(=O)N(C)[C@@H](CC(C)C)C(=O)N[C@H](C(=O)N(C)[C@@H](Cc2ccccc2)C(=O)N(C)[C@@H](Cc2ccccc2)C(=O)N[C@@H](C)C(=O)N2CCCCC2)CC(=O)N(C)[C@H](C)C(=O)N(C)[C@@H](Cc2ccccc2)C(=O)N(C)[C@@H](CC(C)C)C(=O)N[C@@H](C)C(=O)N1C [DP-207] ([dNMeA][NMeF][NMeL]A[NMeL][NMeL]T[NMeF][NMeL]D[NMeF][NMeF]A-Piperidide; lactam N-10) | 12 µL/min/mg | 0.16 ×10⁻⁶ cm/s
CC(C)C[C@H]1C(=O)N[C@H](C(=O)N(C)[C@@H](Cc2ccccc2)C(=O)N(C)[C@@H](Cc2ccccc2)C(=O)N[C@@H](C)C(=O)N2CCCCC2)CC(=O)N[C@@H](C)C(=O)N(C)[C@@H](Cc2ccccc2)C(=O)N(C)[C@@H](CC(C)C)C(=O)N[C@@H]([C@@H](C)O)C(=O)N(C)[C@@H](C)C(=O)N(C)[C@@H](CC(C)C)C(=O)N[C@@H](C(C)C)C(=O)N1C [DP-208] (A[NMeF][NMeL]T[NMeA][NMeL]V[NMeL]D[NMeF][NMeF]A-Piperidide; lactam N-9) | 34 µL/min/mg | 27 ×10⁻⁶ cm/s
CC(C)C[C@H]1C(=O)N[C@@H](C(C)C)C(=O)N(C)[C@@H](Cc2ccccc2)C(=O)NCC(=O)N[C@H](C(=O)N(C)[C@@H](Cc2ccccc2)C(=O)N(C)[C@@H](Cc2ccccc2)C(=O)N[C@@H](C)C(=O)N2CCCCC2)CC(=O)N[C@H](C)C(=O)N[C@@H]([C@@H](C)O)C(=O)N(C)[C@@H](C)C(=O)N(C)[C@@H](Cc2ccccc2)C(=O)N1C [DP-209] ([dA]T[NMeA][NMeF][NMeL]V[NMeF]GD[NMeF][NMeF]A-Piperidide; lactam N-9) | 98 µL/min/mg | 42 ×10⁻⁶ cm/s
CC(C)C[C@H]1C(=O)N[C@H](C(=O)N(C)[C@@H](Cc2ccccc2)C(=O)N(C)[C@@H](Cc2ccccc2)C(=O)N[C@@H](C)C(=O)N2CCCCC2)CC(=O)N(C)[C@@H](C)C(=O)N(C)[C@@H](Cc2ccccc2)C(=O)N[C@@H]([C@@H](C)O)C(=O)N(C)[C@@H](C)C(=O)N(C)[C@@H](CC(C)C)C(=O)N(C)[C@@H](CC(C)C)C(=O)N[C@@H](C(C)C)C(=O)N1C [DP-211] ([NMeA][NMeF]T[NMeA][NMeL][NMeL]V[NMeL]D[NMeF][NMeF]A-Piperidide; lactam N-9) | 178 µL/min/mg | 3.2 ×10⁻⁶ cm/s
CC(C)C[C@H]1C(=O)N(C)[C@@H](CC(C)C)C(=O)N[C@@H](C(C)C)C(=O)N[C@H](C(=O)N(C)[C@@H](Cc2ccccc2)C(=O)N(C)[C@@H](Cc2ccccc2)C(=O)N[C@@H](C)C(=O)N2CCCCC2)CC(=O)N(C)CCC(=O)N(C)[C@@H](C)C(=O)N(C)[C@@H](Cc2ccccc2)C(=O)N[C@@H]([C@@H](C)O)C(=O)N(C)CC(=O)N1C [DP-212] ([NMeβAla][NMeA][NMeF]T[Sar][NMeL][NMeL]VD[NMeF][NMeF]A-Piperidide; lactam N-9) | 27 µL/min/mg | 29 ×10⁻⁶ cm/s
CC(C)C[C@H]1C(=O)N(C)[C@@H](Cc2ccccc2)C(=O)NCC(=O)N(C)[C@@H](Cc2ccccc2)C(=O)N(C)[C@@H](C)C(=O)N[C@@H]([C@@H](C)O)C(=O)N[C@H](C(=O)N(C)[C@@H](Cc2ccccc2)C(=O)N(C)[C@@H](Cc2ccccc2)C(=O)N[C@@H](C)C(=O)N2CCCCC2)CC(=O)N(C)[C@H](C)C(=O)N[C@@H](C(C)C)C(=O)N1C [DP-213] ([dNMeA]V[NMeL][NMeF]G[NMeF][NMeA]TD[NMeF][NMeF]A-Piperidide; lactam N-9) | 71 µL/min/mg | 55 ×10⁻⁶ cm/s
CC(C)C[C@H]1C(=O)N[C@@H]([C@@H](C)O)C(=O)N(C)[C@@H](C)C(=O)N(C)[C@@H](CC(C)C)C(=O)N[C@@H](C(C)C)C(=O)N[C@H](C(=O)N(C)[C@@H](Cc2ccccc2)C(=O)N(C)[C@@H](Cc2ccccc2)C(=O)N[C@@H](C)C(=O)N2CCCCC2)CC(=O)N(C)[C@H](C)C(=O)N(C)[C@@H](Cc2ccccc2)C(=O)N(C)CC(=O)N1C [DP-214] ([dNMeA][NMeF][Sar][NMeL]T[NMeA][NMeL]VD[NMeF][NMeF]A-Piperidide; lactam N-9) | 33 µL/min/mg | 34 ×10⁻⁶ cm/s

Source: patent publication US9409952B2, “Peptide-compound cyclization method” (Chugai Seiyaku Kabushiki Kaisha, priority 2011, dated 2016)
